# According to paper PMC10215302 (Antibiotics, 2023):
# Where two headings read alike, the source gives them in different places.
# Tests used:
# S. aureus RN4220 [1] = conditions: Table S1: RN4220 ∆ (strain with deletion in SACOL1927)
# S. aureus SA0077 = test: microbe, parasite or virus in culture; conditions: Staphylococcus aureus
# S. aureus SA0085 [2] = test: microbe, parasite or virus in culture; conditions: Staphylococcus aureus
# S. aureus SA0422 = test: microbe, parasite or virus in culture; conditions: Staphylococcus aureus
# S. aureus SA0736 = test: microbe, parasite or virus in culture; conditions: Staphylococcus aureus
# S. aureus ATCC 29213 = test: microbe, parasite or virus in culture; conditions: Staphylococcus aureus
# S. aureus RN4220 [3] = test: microbe, parasite or virus in culture; conditions: Staphylococcus aureus, RN4220, read-out: MIC values
# S. aureus SA0085 [4] = conditions: SA0085, after 40 passages in antibiotic-free media (SCCmec excision)
# [5] = SA0077, read-out: MIC values, Table S1: SA0077 Abf (passages on antibiotic-free media)
# [6] = SA0077, read-out: MIC values, Table S1: SA0077 DAP (derivative after 40 passages on daptomycin)
# [7] = SA0077, read-out: MIC values, Table S1: SA0077 VAN (derivative after 40 passages on vancomycin)
# [8] = SA0085, read-out: MIC values, Table S1: SA0085 Abf (passages on antibiotic-free media)
# [9] = SA0085, read-out: MIC values, Table S1: SA0085 VAN (derivative after 40 passages on vancomycin)
# [10] = SA0422, read-out: MIC values, Table S1: SA0422 DAP (derivative after 40 passages on daptomycin)
# [11] = SA0736, read-out: MIC values, Table S1: SA0736 DAP-Y (40 passages on daptomycin, yellow colonies)
# [12] = SA0736, read-out: MIC values, Table S1: SA0736 VAN (derivative after 40 passages on vancomycin)
# [13] = ATCC29213, read-out: MIC values
# [14] = ATCC29213, read-out: MIC values, Table S1: ATCC 29213 DAP (derivative after 40 passages on daptomycin)
# [15] = SA0422, read-out: MIC values, Table S1: SA0422 VAN (derivative after 40 passages on vancomycin)
SMILES,MIC values (S. aureus RN4220 [1]),"MIC (S. aureus SA0077; SA0077, read-out: MIC values)",MIC (S. aureus SA0077; [5]),MIC (S. aureus SA0077; [6]),MIC (S. aureus SA0077; [7]),"MIC (S. aureus SA0085 [2]; SA0085, read-out: MIC values)",MIC (S. aureus SA0085 [2]; [8]),MIC (S. aureus SA0085 [2]; [9]),"MIC (S. aureus SA0422; SA0422, read-out: MIC values)",MIC (S. aureus SA0422; [10]),"MIC (S. aureus SA0736; SA0736, read-out: MIC values)",MIC (S. aureus SA0736; [11]),MIC (S. aureus SA0736; [12]),MIC (S. aureus ATCC 29213; [13]),MIC (S. aureus ATCC 29213; [14]),MIC (S. aureus RN4220 [3]),MIC (S. aureus SA0422; [15]),"MIC (S. aureus SA0736; SA0736, read-out: MIC values, Table S1: SA0736 DAP-W (40 passages on daptomycin, white colonies))",MIC after 40 passages in antibiotic-free media (S. aureus SA0085 [4]),"MIC (S. aureus SA0085 [2]; SA0085, read-out: MIC before passaging, SA0085, before passaging in antibiotic-free media)"
CO[C@@]1(NC(=O)Cc2cccs2)C(=O)N2C(C(=O)O)=C(COC(N)=O)CS[C@@H]21 [Cefoxitin],4 µg/mL,256 µg/mL,64 µg/mL,128 µg/mL,128 µg/mL,256 µg/mL,4 µg/mL,4 µg/mL,256 µg/mL,64 µg/mL,64 µg/mL,8 µg/mL,128 µg/mL,4 µg/mL,2 µg/mL,4 µg/mL,,,,
CCO/N=C(\C(=O)N[C@@H]1C(=O)N2C(C(=O)[O-])=C(Sc3nc(-c4cc[n+](C)cc4)cs3)CS[C@H]12)c1nsc(N)n1 [Ceftaroline],0.5 µg/mL,1 µg/mL,,0.5 µg/mL,,1 µg/mL,0.5 µg/mL,0.125 µg/mL,2 µg/mL,0.5 µg/mL,1 µg/mL,0.5 µg/mL,0.5 µg/mL,0.125 µg/mL,0.25 µg/mL,0.5 µg/mL,1 µg/mL,0.5 µg/mL,,
Cc1onc(-c2ccccc2)c1C(=O)N[C@@H]1C(=O)N2[C@@H]1SC(C)(C)[C@@H]2C(=O)O [Oxacillin],< 0.5 µg/mL,512 µg/mL,128 µg/mL,256 µg/mL,32 µg/mL,256 µg/mL,1 µg/mL,32 µg/mL,512 µg/mL,2 µg/mL,64 µg/mL,16 µg/mL,,< 0.5 µg/mL,,< 0.5 µg/mL,256 µg/mL,,1 µg/mL,512 µg/mL
